“And” between values parts separate entries of the source, which are not always exact repeats. Identical values can stand only once.
Assays:
K-562 cells [1] = experiment: MTT assay, K562; assay type: cell-based, human; settings: 50% growth inhibition
Description: (§1) As a first step in assessing their cytotoxic properties, all thioureas of the series were assayed against four human carcinoma cell lines, such as SW480 (primary colon cancer), SW620 (metastatic colon cancer), PC3 (metastatic prostate cancer), and K-562 (chronic myelogenous leukemia), as well as against the normal cell line HaCaT (immortalized human keratinocytes). Table 1 lists the compound concentrations that produced 50% of growth inhibition (IC50, μM), generated by the MTT method, in comparison with two commonly used chemotherapeutic agents, doxorubicin and cisplatin.
The human primary (SW480), metastatic (SW620) colon cancer, metastatic prostate cancer (PC3), chronic myelogenous leukemia (K-562), and human immortal keratinocyte (HaCaT) cell lines were purchased from the American Type Culture Collection (ATCC, Rockville, MD, USA). The cells were cultured in medium according to protocols (MEM for SW480 and SW620, RPMI 1640 for PC3 and K-562, and DMEM for HaCaT cells), supplemented with 10% FBS, penicillin (100 U/mL) and streptomycin (100 μg/mL), and cultured in a 37 °C/5% CO2 humidified incubator. The cells were cultured until appropriate confluence was achieved (80–90%). Next, they were harvested by treatment with 0.25% trypsin (Gibco Life Technologies, Waltham, MA, USA) excluding the non-adherent K-562 cell line and used for studies.
(§2) Cells without the studied compounds in medium were used as a control.
(§3) The cell viability was assessed by determination of MTT salt [3-(4,5-dimethylthiazol-2-yl)-2,5-diphenyltetrazoliumbromide] conversion by mitochondrial dehydrogenase. The MTT assay was performed as previously described. Alternatively, non-adherent leukemic cells were centrifuged in a microplate centrifuge (400× g, 5 min) during the collection stages. Experiments were repeated three times. Cell viability was presented as a percent of MTT reduction in the treated cells versus the control cells. The number of viable cells cultured without the studied compounds was assumed as 100%. A decreased relative MTT level indicated decreased cell viability. Thiourea compounds with the highest cytotoxic potential assessed by MTT determination (with the lowest IC50) were chosen for subsequent assessments of cytotoxicity mechanisms.

Trypan blue assay, HaCaT = assay type: cell-based, human; settings: human, HaCaT cells, compound at IC50 concentration
Description: (§4) In order to estimate the tumor and normal cell population density and their viability after treatment with compounds 1–3, 8, and 9, the trypan blue dye exclusion assay was performed. The live cell number of all cancerous cells incubated for 72 h with the studied thioureas was considerably lower in comparison with the controls (Table 2; Figure S1A). The highest reduction in cell amount was denoted for both colon SW480 and SW620 cells treated with the dichlorophenyl derivative 2, and it accounted for 93%. […] Similarly, a noticeable decline in both colon cancer cell populations was observed after treatment with the ortho-substituted compound 8. The number of live cells equaled 12% and 18%, respectively, as compared to controls. This thiourea also led to a reduction of PC3 cells of 38%, and leukemia K-562 cell lines of 27%. The number of SW620 and PC3 cells decreased by 72% and 63% in the presence of para-substituted compound 9. However, the reducing influence of this thiourea on the number of other cancerous cells was at the level of 21–32%. […] A significant effect on the other studied pathological cells was also noticed and accounted for 32–46%. Furthermore, the derivative 3 reduced the amount of live cancer cells by 32–59%, of which its decreasing impact on colon cancer cells was the greatest.
(§5) The live cell count was assessed by the trypan blue exclusion dye assay using an automated cell counter (CountessTM Invitrogen, Waltham, MA, USA). Untreated cells were used as the control.

HaCaT cells = experiment: Trypan blue assay, HaCaT; assay type: cell-based, human; settings: 72 h, compound at IC50 concentration
Description: as §4, §5

SW480 cells = experiment: Annexin V-FITC/PI flow cytometry, SW480; assay type: cell-based, human; settings: SW480, 72 h, IC50 concentration
Description: (§6) To estimate the mechanism of anticancer activity of the selected compounds 1–3, 8, and 9, their effect on both early and late apoptosis was evaluated by flow cytometry analysis. […] Additionally, visible late apoptosis-inducing properties in these cell lines were denoted for the compound 9 (47% ± 3.0%), which was twice as strong towards the colon tumor cells mentioned above. The apoptotic properties of analogs 3 and 8 in K-562 cells varied from 30% ± 1.6% to 33% ± 2.3%. […] Whereas the apoptosis-generating influence of derivatives 2 and 3 on normal keratinocytes was higher (29% and 23%), their selectivity measured by MTT methods is favorable. The obtained results are in agreement with the IC50 values assigned to pathological cancer cell lines. The cells were cultured and harvested under the conditions described in Section 3.2.1. […] The effect of these compounds on the process of early and late apoptosis and necrosis was determined as described previously by dual staining with Annexin V:FITC and propidium iodide, according to the manufacturer’s protocol (Becton Dickinson). The cells that were Annexin V:FITC positive and PI negative were identified as early apoptotic, and Annexin V:FITC and PI positive as late apoptotic or necrotic.

SW620 cells = experiment: Annexin V-FITC/PI flow cytometry, SW620; assay type: cell-based, human; settings: SW620, 72 h, IC50 concentration
Description: as §6

K-562 cells [2] = experiment: Annexin V-FITC/PI flow cytometry, K-562; assay type: cell-based, human; settings: K-562, 72 h, IC50 concentration
Description: as §6

IL-6 level, HaCaT cells = experiment: IL-6 level ELISA, HaCaT; assay type: cell-based, human; settings: 72 h, compound at IC50 concentration
Description: Because of the low secretion of IL-6 by leukemic cells compared to solid tumors, and in addition to the lack of IL-6 receptors in K-562 cells, studies of the effect of derivatives 1–3, 8, and 9 on the inhibition of IL-6 release were carried out on primary and secondary solid tumor cells (SW480, SW620, and PC3). A remarkable inhibition of the IL-6 level was denoted for both colon cancer cell lines. Compound 2, identified as the strongest inhibitor, reduced the interleukin level by 54% (in SW480 cells) and 63% (SW620 cells). A significant effect was also observed in these cells for its structural isomer 3 (39% and 23% of inhibition, respectively). Additionally, compound 3 considerably affected the IL-6 level produced by PC3 cells, and reduced it by 33%. Similarly, the treatment with derivative 1 was effective for both colon cancer cells. In its presence, IL-6 release decreased by 28–36%, as compared to controls. For monosubstituted derivatives 8 and 9, the observed IL-6-reducing influence was weaker. They both inhibited IL-6 secretion in SW480 and SW620 cell lines by 25–32%. In contrast to compound 9, thiourea 8 additionally diminished the cytokine level in PC3 cells by 26%.
The IL-6 concentration in all studied cancer cells and normal HaCaT cell lines was measured by an ELISA kit (Diaclon SAS Besancon CEDEX, Besançon, France). […] IL-6 in cell culture supernatant was measured using the enzyme-linked immunosorbent assay in accordance with the manufacturer’s protocol.

[3] = test system: SW480, SW620, PC3, K-562 cells; experiment: MTT assay, summary over cancer cell lines; assay type: cell-based; settings: Homo sapiens, 72 h, depending on the tumor line, read-out: IC50 (range or bound over cancer cell lines)
Description: as §1, §2, §3

Compound	IC50 (K-562 cells [1]; Homo sapiens, K562, 72 h)	viability at 72 h (Trypan blue assay, HaCaT)	Cell Number × 10^5 (HaCaT cells)	cells in late apoptosis (SW480 cells)	cells in late apoptosis (SW620 cells)	cells in late apoptosis (K-562 cells [2])	IL-6 Concentration (IL-6 level, HaCaT cells)	IC50 [3]	IC50 (K-562 cells [1]; 72 h)
FC(F)(F)c1cccc(NC(=S)Nc2ccc(Cl)c(Cl)c2)c1 [Compound 2, 1-(3,4-dichlorophenyl)-3-[3-(trifluoromethyl)phenyl]thiourea]	6.3 ± 1.28 µM	84 ± 1.03%	1.6 ± 0.31 × 10^5	95% ± 1.5%	99% ± 0.5%	73% and 73% ± 2.0%	9.1 ± 0.03 pg/mL	–	–
FC(F)(F)c1cccc(NC(S)=Nc2ccc(Cl)cc2Cl)c1 [Compound 3, 1-(2,4-dichlorophenyl)-3-[3-(trifluoromethyl)phenyl]thiourea]	54.3 ± 1.86 µM	96 ± 3.01%	7.8 ± 0.14 × 10^5	–	≤ 26%	–	8.9 ± 0.01 pg/mL	≤ 10 µM	–
Fc1ccc(NC(=S)Nc2cccc(C(F)(F)F)c2)cc1Cl [Compound 1, 1-(3-chloro-4-fluorophenyl)-3-[3-(trifluoromethyl)phenyl]thiourea]	6.8 ± 1.57 µM	97 ± 1.33%	6.5 ± 0.15 × 10^5	60% ± 1.8%	57% ± 1.2%	74% ± 3.8%	8.7 ± 0.03 pg/mL	≤ 10 µM	–
FC(F)(F)c1ccc(NC(=S)Nc2cccc(C(F)(F)F)c2)cc1 [Compound 8, 1-[3-(trifluoromethyl)phenyl]-3-[4-(trifluoromethyl)phenyl]thiourea]	54.8 ± 0.24 µM	98 ± 1.02%	4.9 ± 0.28 × 10^5	97% ± 1.2%	≤ 26%	–	9.1 ± 0.06 pg/mL	–	–
FC(F)(F)c1cccc(NC(=S)Nc2ccc(Cl)cc2)c1 [Compound 9, 1-(4-chlorophenyl)-3-[3-(trifluoromethyl)phenyl]thiourea]	10.2 to 12.9 µM	98 ± 1.5%	8.6 ± 0.12 × 10^5	24% ± 0.4%	≤ 26%	47% ± 3.0%	9.0 ± 0.01 pg/mL	≤ 10 µM	10.2 ± 0.35 µM
